# “Also recorded” adds a separate entry of the source.
# Columns and labels:
# FVIII = FVIII activation in rTF/FVIIa-initiated reactions with FX, prothrombin, FVIII, FV (immunoblot); settings: thrombin blocked with 4 μM DAPA
# Method: Quantification of generated FVIIIa-A1 calibrated with known quantities of the fragment. (B) FVIIIa activity calculated from FXa generation in reactions as in (A), but with 10 nM FIXa added and incubated for 180 s at 37° C. (n=4-12). FXa generation depend-ent on FVIIIa-FIXa activity was calculated by subtracting FXa generated by FVIIa and FIXa added individually from that by FVIIa/FIXa added together. (C) FVIIIa activity generated and calculated in reaction as in (A, B) but with the addition of 10 nM TFPIα. Results in A (bottom), B and C—shown as 25th-75th percentile bars, min-to-max whiskers, line at the median; or min-to-max floating bars with line at the mean when n≤3—were analyzed by ANOVA/Tukey tests. ***P<0.001; NS, not significant.
# Reactions in 50 mM Tris-buffered saline, pH 7.4, with 0.1% bovine serum albumin included 0.7 nM FVIII, 3 nM FV, 135 nM FX and 1 μM prothrombin without/with 4 μM DAPA. TFPI and other inhibitors were added as indicated. […] After quenching the reaction with 10 mM EDTA, generated FXa was measured with S-2765 (180 μM). FVIIIa procoagulant activity was measured as FIXa-dependent FXa generation; FVIIIa procoagulant activity generated by the nascent TF-FVIIa-FXa complex was calculated by subtracting the amount of FXa produced in reactions initiated by FVIIa and FIXa individually from that produced in reactions initiated by FVIIa/FIXa combined. […]
# thrombin generation (TG) = format: biochemical, human; settings: recalcified PRP containing CTI
# Method: TG in PRP or reconstituted PRP was evaluated as known to those skilled in the art. Native PRP was prepared from blood collected into final 12.9 mM trisodium citrate by centrifugation at 250 g for 10 min at 25° C. The platelet count was adjusted to 180×10^3/μl by dilution with homologous PPP obtained by centrifuging PRP for 10 min at 1,500 g. CTI was added at 30-50 μg/ml depending on calibrated potency as assessed by FXIIa inhibition. Reconstituted PRP was prepared with washed platelets prepared from normal PRP by adding ⅕th volume of acid citrate-dextrose (71 mM citric acid, 85 mM trisodium citrate, and 111 mM dextrose, pH 4.5) and 5 U/ml apyrase; following centrifugation at 1,500 g for 10 minutes at 25° C., the platelet pellet was resuspended into PPP lacking FVII (George King Bio-Medical) or FIX (Haematologic Technologies) to give a final platelet count of 180·103/μl PRP was mixed with varying concentrations of rTF and/or 20 pM FIXa in 96-well microtiter plates. The reaction was started by adding 18 mM CaCl2 with 360 μM of the thrombin substrate benzyloxycarbonyl-glycyl-glycyl-L-arginine coupled to the fluorogenic group 7-amido-4-methylcoumarin (Gly-Gly-Arg-AMC; Bachem Americas, Torrance, Calif.). Fluorescence was measured continuously at 37° C. for up to 40 min in a spectrofluorometer (355/460 nm excitation/emission). The rate of fluorescence intensity increase as a function of time (dF/dt) was calculated with Turbo Delphi 2006 (Borland Software Corporation, Austin, Tex.) and converted to thrombin-equivalent concentration (nM) using a calibration curve. The endogenous thrombin potential (ETP) of samples, i.e. total generated thrombin activity, was determined from the area under the TG curve. When specified, TG was measured with a discontinuous 2-stage assay with a detection limit of 5 pM. For this, TG was induced by 0.15 pM rTF and 18 mM CaCl2 in reconstituted FVII-deficient PRP including 30 μg/ml CTI with 400 pM WT FVIIa or iFVIIa without or with 20 pM FIXa. After incubation for up to 11 min at 37° C., reactions were terminated by adding 20 mM EDTA and generated thrombin was measured using the highly sensitive thrombin substrate H-D-CHA-Ala-Arg-AMC.2AcOH (Pefafluor TH, Pentapharm, Basel, Switzerland) at 50 μM concentration. In other experiments, TG was induced by TFiFVIIa-FXa-TFPI or TF-iFVIIa-FXa-NAPc2. These stable complexes were pre-formed by incubating 5 nM FXa, 10 nM TF, 10 nM iFVIIa and 40 nM TFPI or NAPc2 in the presence of 2.5 mM CaCl2 for 2 min at 37° C. Complexes were added into FVII-deficient PRP, followed by incubation for 8 min at 37° C.
# PRP was prepared from blood collected into trisodium citrate (final concentration 0.0129 M) by centrifugation for at 250 g for 10 min at 25° C.; the platelet count was adjusted at 180.103 per μl by diluting with homologous platelet-poor plasma (PPP) obtained by centrifuging PRP for an additional 10 min at 1,500 g. When indicated, CTI was added at 30 to 50 μg/ml depending on calibrated potency measured by FXIIa inhibition. Reconstituted PRP was prepared by adding normal washed platelets into PPP (without or with CTI) lacking FVII, FVIII (both from George King Bio-Medical, Overland Park, Kans.) or FIX (Haematologic Technologies). […] generation in PRP was measured as described by Hemker et al. 53 μl of PRP was mixed in 96-well microtiter plates with 15 μl of a solution containing rTF and/or one of the intrinsic coagulation pathway proteases—FXIIa, FXIa or FIXa—to achieve the indicated final concentrations. Antibodies or inhibitors were also added at this point at the concentration indicated for each specific case. The reaction was started by adding between 15 and 20 μl of 100 mM CaCl2 and 2 mM fluorogenic substrate, benzyloxycarbonyl-glycyl-glycyl-L-arginine-7-amido-4-methylcoumarin (Gly-Gly-Arg-AMC; Bachem Americas, Torrance, Calif.).
# [1] = system: fibrillar collagen type I; assay: Blood perfusion over fibrillar collagen type I, volume of platelet aggregates and fibrin; format: cell-based, human; settings: blood of treated patients, collagen surface
# Method: The volume of platelet aggregates and deposited fibrin was measured by confocal microscopy. Statistical analysis by one-way ANOVA and Tukey post-test. *P<0.05; **P<0.01; ***P<0.001.
# Glass coverslips treated with 0.2 mg/ml poly-L-lysine for 6 h at 37° C. were coated with rTF for 18-20 hours at 37° C. or 2.5 mg/ml acid-insoluble type I collagen for 2 hours at 22-25° C. Then they were rinsed with pH 7.4 buffered-saline, assembled in a rectangular flow chamber with a 125 μm-high silicon gasket and positioned on a confocal microscope stage for analysis. Venous blood for testing was collected into final 10.9 mM trisodium citrate using a plastic syringe for normal volunteers or Vacutainer tubes (Becton Dickinson, Buccinasco, Milan) for patients and controls. Before perfusion at a flow rate yielding an initial wall shear rate of 300 s^−1 maintained with a syringe pump (Harvard Apparatus, Holliston, Mass.), CaCl2 was added to obtain 1.29 mM Ca^2+. In the blood of patients—potentially hypercoagulable—and related controls, lepirudin (50 nM) was also added to neutralize thrombin possibly generated before testing. […] For experiments with WT and mutant FVIIa, cells from group O citrated blood, containing 50 μg/ml CTI and 10 U/ml (ADPase activity) apyrase, were washed free of plasma by sequential centrifugation steps at 1500 g for 7 min. After the first, plasma was replaced with an equal volume of calcium-free Tyrode buffer, pH 6.5, with 5 U/ml apyrase; then with buffer and 1.25 U/ml apyrase; and finally with human FVII deficient plasma (George King Bio-Medical, Overland Park, Kans.) up to the original blood volume. […] Experiments in Milan (Italy) were performed with a Leica TCS SP5 microscope and HCX PL APO 63x/1.40 NA oil immersion objective (Leica Microsystems GmbH, Wetzlar, Germany); in La Jolla (California) with a Zeiss Axiovert 135M/LSM 410 and Plan-Apochromat 40x/1.40 NA oil immersion objective (Carl Zeiss AG, Oberkochen, Germany).
# Platelets adhering and aggregating onto the surface were visualized by adding quinacrine-HCl (mepacrine; 10 μg/ml; Sigma-Aldrich) to blood. Deposited fibrin was visualized with Alexa Fluor 546-labeled (Invitrogen) mouse monoclonal IgG (50 μg/ml) specific for the B chain of mouse and human fibrin (HB-8545; ATCC). […] This was followed by buffer (DMEM) for 2 minutes to facilitate fibrin quantification by confocal z section analysis using a Zeiss Axiovert 135M/LSM 410 microscope (Carl Zeiss) and Plan-Apochromat×63/1.40 NA oil immersion objective. […] Deposited fibrin volume was measured from confocal sections collected at 4 preset positions in the flow chamber. Total volume of deposited platelets and fibrin was calculated from the sum of the respective area coverage per section multiplied by the z interval (2 μm). […]
# initial TG = assay: Discontinuous 2-stage assay of initial TG in platelet-poor plasma; format: biochemical, human
# Method: FIG. 21 illustrates, in accordance with embodiments herein, TG assays in FVIII-deficient PPP without or with anti-FVIII inhibitors. (A) Initial TG in discontinuous 2-stage assay was induced by adding 150 fM rTF/200 pM FIXa and 5 μM PL, followed by incubation for 5 min at 37° C. Each column indicates mean+SEM (n=3) of generated FIIa. (B) Comparison of dose-response curve of added FVIII in TG in FVIII-deficient plasma by discontinuous 2-stage assay with that by continuous assay.
# FIG. 22 illustrates, in accordance with embodiments herein, FVIIIa-dependent and -independent TG in plasma from Coumadin-treated patients. FVIIIa-dependent TG was induced by adding 150 fM rTF/200 pM FIXa with 1.3 μM PL, while FVIIIa-independent TG was by 1.2 pM rTF with 1.3 μM PL. Each column indicates mean+SEM (n=3) of generated FIIa after 3 min of incubation.
# To establish highly sensitive TG assay method, the inventors made a screening of FIIa substrates with high affinity and turnover rate by determining kinetic parameters and then constructed a calibration curve with known concentrations of a FIIa calibrator. In the studies, they found two fluorogenic substrates H-D-cyclohexyl-alanyl-alanyl-argininyl-amidomethylcoumarin (AMC) (Pefafluor TH) and butyloxycarbonyl-valyl-prolinyl-argininyl-AMC (V-P-R-AMC) were suitable for quantifying much low concentrations of FIIa activity with a detection limit of ˜5 pM (FIG. 17). Initial TG was measured with “discontinuous 2-stage assay” using the high sensitive substrate. Briefly, TG was initiated by combined addition of rTF and FIXa with 18 mM CaCl2 into plasma, followed by incubation for up to 5 min at 37° C. After incubation, reactions were terminated with 20 mM EDTA and generated FIIa was measured using the highly sensitive FIIa substrate Pefafluor TH or V-P-R-AMC. In the assays, combined addition of 150 fM rTF and 200 pM FIXa time-dependently produced FIIa in normal platelet-poor plasma (PPP) prepared from healthy donors (FIG. 18A). […] To further validate the assay method, reproducibility of the TG assay method was examined by determination of intra-assay and inter-assay coefficient of variations (CV) using manual assay protocol.
# immobilized rTF = assay: Blood perfusion over immobilized rTF, volume of platelet aggregates and fibrin; format: cell-based, human
# Method: Glass coverslips treated with 0.2 mg/ml poly-L-lysine for 6 h at 37° C. were coated with rTF for 18-20 hours at 37° C. or 2.5 mg/ml acid-insoluble type I collagen for 2 hours at 22-25° C. Then they were rinsed with pH 7.4 buffered-saline, assembled in a rectangular flow chamber with a 125 μm-high silicon gasket and positioned on a confocal microscope stage for analysis. Venous blood for testing was collected into final 10.9 mM trisodium citrate using a plastic syringe for normal volunteers or Vacutainer tubes (Becton Dickinson, Buccinasco, Milan) for patients and controls. Before perfusion at a flow rate yielding an initial wall shear rate of 300 s^−1 maintained with a syringe pump (Harvard Apparatus, Holliston, Mass.), CaCl2 was added to obtain 1.29 mM Ca^2+. In the blood of patients—potentially hypercoagulable—and related controls, lepirudin (50 nM) was also added to neutralize thrombin possibly generated before testing. […] For experiments with WT and mutant FVIIa, cells from group O citrated blood, containing 50 μg/ml CTI and 10 U/ml (ADPase activity) apyrase, were washed free of plasma by sequential centrifugation steps at 1500 g for 7 min. After the first, plasma was replaced with an equal volume of calcium-free Tyrode buffer, pH 6.5, with 5 U/ml apyrase; then with buffer and 1.25 U/ml apyrase; and finally with human FVII deficient plasma (George King Bio-Medical, Overland Park, Kans.) up to the original blood volume. Cell count results in reconstituted and native blood were within 90%. Experiments in Milan (Italy) were performed with a Leica TCS SP5 microscope and HCX PL APO 63x/1.40 NA oil immersion objective (Leica Microsystems GmbH, Wetzlar, Germany); in La Jolla (California) with a Zeiss Axiovert 135M/LSM 410 and Plan-Apochromat 40x/1.40 NA oil immersion objective (Carl Zeiss AG, Oberkochen, Germany).
# Platelets adhering and aggregating onto the surface were visualized by adding quinacrine-HCl (mepacrine; 10 μg/ml; Sigma-Aldrich) to blood. Deposited fibrin was visualized with Alexa Fluor 546-labeled (Invitrogen) mouse monoclonal IgG (50 μg/ml) specific for the B chain of mouse and human fibrin (HB-8545; ATCC). Blood was perfused for 3-5 min at 37° C. with a syringe pump (Harvard Apparatus Inc.) at a flow rate yielding an initial (in the unobstructed flow path) wall shear rate of 300 s^−1. This was followed by buffer (DMEM) for 2 minutes to facilitate fibrin quantification by confocal z section analysis using a Zeiss Axiovert 135M/LSM 410 microscope (Carl Zeiss) and Plan-Apochromat×63/1.40 NA oil immersion objective. Image analysis was performed with NIH ImageJ64. Deposited fibrin volume was measured from confocal sections collected at 4 preset positions in the flow chamber. Total volume of deposited platelets and fibrin was calculated from the sum of the respective area coverage per section multiplied by the z interval (2 μm). All studies involving human subjects were conducted following institutionally approved protocols.
# TF-coated glass coverslips were perfused with venous blood at a wall shear rate of 300 s^−1. A Zeiss Axiovert 135M/LSM 410 and Plan-Apochromat 40x/1.40 NA oil immersion objective (Carl Zeiss AG, Oberkochen, Germany) was used to visualize platelets/leukocytes and fibrin stained with mepacrine and a specific anti-body, respectively. Image analysis to calculate volumes was performed as described herein.
# Glass coverslips treated with 0.2 mg/ml poly-L-lysine for 6 h at 37° C. were coated with rTF for 18-20 hours at 37° C., rinsed with buffered-saline and assembled in a rectangular flow chamber with a 125 μm-high silicon gasket. Venous blood was collected into final 10.9 mM trisodium citrate using a plastic syringe. CaCl2 was added to obtain 1.29 mM Ca^2+ before perfusion at a wall shear rate of 300 s-1 maintained with a syringe pump (Harvard Apparatus, Holliston, Mass.). […]
# TF-FVIIa = assay: FXa generation by TF-FVIIa in reactions with purified components; format: biochemical, human; settings: reconstituted system
compound,measurement,setting,value
"CCC1CCN(C(=O)C(CCCN=C(N)N)NS(=O)(=O)c2cccc3c(N(C)C)cccc23)CC1 (centres unmarked) [DAPA, dansylarginine N-(3-ethyl-1,5-pentanediyl)amide]",FVIIIa still detectable,FVIII,~15%
COc1ccc(-n2nc(C(N)=O)c3c2C(=O)N(c2ccc(N4CCCCC4=O)cc2)CC3)cc1 [apixaban],difference in dose response between rivaroxaban and apixaban,thrombin generation (TG),~3 fold
CC(=O)CC(c1ccccc1)c1c(O)c2ccccc2oc1=O (centres unmarked) [warfarin],mean volume of platelet aggregates vs controls,[1],not significantly different
same,volume of deposited fibrin vs controls,[1],significantly reduced; also recorded: markedly reduced
same,FVIIIa-independent TG,"initial TG; 1.2 pM rTF alone without FIXa, patient plasma",abolished even at lower INR
same,initial FVIIIa-dependent TG,"initial TG; patient plasma with INR 1.5, 150 fM rTF/200 pM FIXa, 1.3 μM PL, 3 min",~15 % of normal plasma
same,initial FVIIIa-dependent TG,"initial TG; patient plasma with INR 2.9, 150 fM rTF/200 pM FIXa, 1.3 μM PL, 3 min",~5 % of normal plasma
same,initial FVIIIa-dependent TG,initial TG; patient plasma with much higher INR values,completely abolished
same,fibrin deposition,"immobilized rTF; blood of treated patients, high density TF surface",significantly reduced
same,volume of deposited fibrin,"immobilized rTF; blood of treated patients, higher rTF coating concentration, 300 s^-1, 5 min",markedly reduced fibrin formation
same,volume of deposited fibrin vs untreated controls,"immobilized rTF; blood of treated patients, lower rTF coating concentration, 300 s^-1, 5 min",markedly smaller
same,volume of platelet aggregates vs controls,"immobilized rTF; blood of treated patients, rTF coating 20 and 40 pM",significantly reduced on both rTF surfaces
TFPI with protein S: TFPI with protein S (PS) cofactor,reduction of FXa produced by TF-FVIIa,TF-FVIIa,> 75%
recombinant [Leu1-Thr2]-63-desulfohirudin [lepirudin],effect on deposited fibrin volume in the flow chamber,"immobilized rTF; lepirudin 50 nM, preliminary experiments",limited effect
